pEC50, pIC50: −log10 of the molar value.
Columns and labels:
[1] = biological target: TASK-1 (K2P3.1), wild type (Homo sapiens, UniProt O14649); assay: two-electrode voltage clamp, Xenopus oocytes; type: cell-based
[2] = biological target: T1, TRESK (Homo sapiens, UniProt Q7Z418); assay: cell-based
T1 sequence (Q7Z418 1-384): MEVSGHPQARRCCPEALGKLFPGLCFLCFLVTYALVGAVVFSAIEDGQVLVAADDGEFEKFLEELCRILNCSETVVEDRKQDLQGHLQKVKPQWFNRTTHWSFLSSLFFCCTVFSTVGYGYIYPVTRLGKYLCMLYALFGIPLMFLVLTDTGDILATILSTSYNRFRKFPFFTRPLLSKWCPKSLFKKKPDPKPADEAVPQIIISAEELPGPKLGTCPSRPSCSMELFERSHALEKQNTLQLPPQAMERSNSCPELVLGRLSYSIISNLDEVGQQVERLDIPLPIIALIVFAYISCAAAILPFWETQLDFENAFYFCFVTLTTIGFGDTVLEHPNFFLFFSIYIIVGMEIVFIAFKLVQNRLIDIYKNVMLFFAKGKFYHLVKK

[3] = biological target: T2, Kir3.1/3.4 (Homo sapiens, UniProt P48544+P48549); assay: cell-based
T2 sequence (P48544 1-419): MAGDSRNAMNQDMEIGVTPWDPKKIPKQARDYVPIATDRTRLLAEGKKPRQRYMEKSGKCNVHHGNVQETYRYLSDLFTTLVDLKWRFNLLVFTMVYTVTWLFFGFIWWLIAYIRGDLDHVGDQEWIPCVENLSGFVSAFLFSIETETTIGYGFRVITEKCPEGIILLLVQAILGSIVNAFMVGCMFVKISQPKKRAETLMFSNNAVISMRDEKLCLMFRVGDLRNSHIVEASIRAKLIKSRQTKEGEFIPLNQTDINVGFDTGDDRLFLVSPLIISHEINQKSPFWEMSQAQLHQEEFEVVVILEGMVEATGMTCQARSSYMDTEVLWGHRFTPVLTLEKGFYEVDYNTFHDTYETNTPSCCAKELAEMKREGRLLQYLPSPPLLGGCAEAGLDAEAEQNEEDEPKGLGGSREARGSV
T2 sequence (P48549 1-501): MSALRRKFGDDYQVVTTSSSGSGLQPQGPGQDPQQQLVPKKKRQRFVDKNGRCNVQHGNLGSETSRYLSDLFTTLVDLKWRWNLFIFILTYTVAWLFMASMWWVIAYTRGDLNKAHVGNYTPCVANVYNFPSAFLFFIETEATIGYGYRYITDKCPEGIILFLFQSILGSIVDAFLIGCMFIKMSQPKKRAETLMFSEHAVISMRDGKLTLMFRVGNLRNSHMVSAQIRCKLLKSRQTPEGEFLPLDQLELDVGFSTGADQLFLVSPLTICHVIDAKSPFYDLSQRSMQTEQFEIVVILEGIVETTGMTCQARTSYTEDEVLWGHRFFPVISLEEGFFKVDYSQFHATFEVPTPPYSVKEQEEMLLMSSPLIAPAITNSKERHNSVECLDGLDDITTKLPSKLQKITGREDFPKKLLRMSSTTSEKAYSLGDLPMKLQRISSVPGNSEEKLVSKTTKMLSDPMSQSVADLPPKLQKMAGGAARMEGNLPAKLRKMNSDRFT

[4] = biological target: T3, TRPC6 (Homo sapiens, UniProt Q9Y210); assay: cell-based
T3 sequence (Q9Y210 1-931): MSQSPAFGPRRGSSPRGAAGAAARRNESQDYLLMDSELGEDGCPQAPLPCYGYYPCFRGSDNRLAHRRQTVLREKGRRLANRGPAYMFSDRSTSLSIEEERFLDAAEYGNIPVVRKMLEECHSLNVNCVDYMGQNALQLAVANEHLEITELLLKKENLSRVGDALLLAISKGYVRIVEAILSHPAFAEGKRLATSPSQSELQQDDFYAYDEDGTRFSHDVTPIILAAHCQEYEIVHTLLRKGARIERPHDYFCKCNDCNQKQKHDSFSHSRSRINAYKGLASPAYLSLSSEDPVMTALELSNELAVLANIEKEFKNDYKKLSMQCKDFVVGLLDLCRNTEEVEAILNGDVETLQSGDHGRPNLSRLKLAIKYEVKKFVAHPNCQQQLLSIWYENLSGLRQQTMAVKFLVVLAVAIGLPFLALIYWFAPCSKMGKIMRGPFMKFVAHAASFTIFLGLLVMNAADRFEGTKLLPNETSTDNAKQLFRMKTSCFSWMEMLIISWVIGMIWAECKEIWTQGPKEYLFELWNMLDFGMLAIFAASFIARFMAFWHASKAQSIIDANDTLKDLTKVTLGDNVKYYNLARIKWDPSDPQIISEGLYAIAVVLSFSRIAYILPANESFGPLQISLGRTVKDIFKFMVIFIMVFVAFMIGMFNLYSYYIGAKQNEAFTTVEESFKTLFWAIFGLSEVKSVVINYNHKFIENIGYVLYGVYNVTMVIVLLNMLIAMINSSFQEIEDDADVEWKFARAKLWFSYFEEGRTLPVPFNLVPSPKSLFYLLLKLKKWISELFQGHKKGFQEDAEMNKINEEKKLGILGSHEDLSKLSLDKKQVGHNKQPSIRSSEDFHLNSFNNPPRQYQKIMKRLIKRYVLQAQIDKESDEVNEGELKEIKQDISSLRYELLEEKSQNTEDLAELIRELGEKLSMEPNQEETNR

[5] = biological target: KCNQ1 (Homo sapiens, UniProt P51787); assay: cell-based
Chain of KCNQ1 (P51787 whole entry): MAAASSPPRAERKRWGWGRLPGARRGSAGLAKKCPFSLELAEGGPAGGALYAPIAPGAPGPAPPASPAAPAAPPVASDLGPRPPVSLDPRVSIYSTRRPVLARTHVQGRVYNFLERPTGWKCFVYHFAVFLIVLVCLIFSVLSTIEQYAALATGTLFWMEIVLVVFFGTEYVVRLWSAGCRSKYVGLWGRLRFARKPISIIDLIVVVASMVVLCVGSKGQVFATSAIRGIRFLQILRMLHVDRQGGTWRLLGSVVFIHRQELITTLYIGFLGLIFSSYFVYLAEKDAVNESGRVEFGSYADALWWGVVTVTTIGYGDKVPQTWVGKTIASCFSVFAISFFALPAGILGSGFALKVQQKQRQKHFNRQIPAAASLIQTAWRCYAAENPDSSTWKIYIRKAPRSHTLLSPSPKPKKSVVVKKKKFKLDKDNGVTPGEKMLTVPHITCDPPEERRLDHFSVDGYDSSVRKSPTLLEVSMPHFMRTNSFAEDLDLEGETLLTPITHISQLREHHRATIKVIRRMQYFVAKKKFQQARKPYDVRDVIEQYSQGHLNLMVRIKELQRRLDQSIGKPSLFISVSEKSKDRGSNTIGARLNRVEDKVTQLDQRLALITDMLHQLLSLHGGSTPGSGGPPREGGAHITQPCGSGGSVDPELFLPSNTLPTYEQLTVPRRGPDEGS

Chain of TASK-1 (K2P3.1), wild type (O14649 whole entry): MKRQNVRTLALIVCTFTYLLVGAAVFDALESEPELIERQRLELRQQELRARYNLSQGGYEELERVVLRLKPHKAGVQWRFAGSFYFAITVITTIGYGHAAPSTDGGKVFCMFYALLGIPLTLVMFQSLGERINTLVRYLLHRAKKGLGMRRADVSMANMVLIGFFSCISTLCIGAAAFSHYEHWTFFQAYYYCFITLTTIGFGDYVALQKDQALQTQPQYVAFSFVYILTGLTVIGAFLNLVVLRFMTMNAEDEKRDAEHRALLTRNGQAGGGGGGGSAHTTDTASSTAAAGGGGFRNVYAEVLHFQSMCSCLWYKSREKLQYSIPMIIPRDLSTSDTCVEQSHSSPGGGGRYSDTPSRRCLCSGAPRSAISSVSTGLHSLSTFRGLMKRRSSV

- pEC50 [1]: 8.02
- pIC50 [2]: < 4.52
- pIC50 [3]: < 4.52
- pIC50 [4]: < 4.52
- pIC50 [5]: < 4.52
Compound: O=C(c1ccccc1F)N1CCN(Cc2c(-c3ccc(Br)cc3)nc3ccccn23)CC1 [BAY 1000493, (4-{[2-(4-bromophenyl)imidazo[1,2-a]pyridin-3-yl]methyl}vpiperazin-1-yl)(2-fluorophenyl)methanone]

Source: publication doi:10.1101/706168v1 (biorxiv, 2019)
